Reference: patent US12629351B2, “HDAC inhibitors for idiopathic pulmonary fibrosis and other lung inflammatory disorders” (COUNCIL OF SCIENTIFIC AND INDUSTRIAL RESEARCH (AN INDIAN …, priority 2020, dated 2026)

Tests used:
[1] = system: NHLF, DHLF and LL29 cells; test: q-RT-PCR gene expression in TGF-β1 stimulated cells, statements not split by cell line; assay type: cell-based, human; settings: for HDAC-8 levels (gene expression): TGF-β1 stimulated, other concentrations
Procedure: (§1) LL29 cells (lung fibroblasts from IPF patient) were purchased from ATCC and cultured in Ham's F-12K medium supplemented with 15% FBS. Primary lung fibroblasts cells, NHLF and DHLF-IPF cells were purchased from LONZA and cultured in FGF-2 medium with FGF, Insulin and FBS. All the cells were maintained in a humidified atmosphere of 95% air with 5% CO2 at 37° C.
(§2) Cells were pre-treated with HDAC-inhibitors (COMPOUND-109, COMPOUND-108 and COMPOUND-107) for 2 hours in serum free media and then human recombinant TGF-β (R&D Systems, Minneapolis, MN) was added at a concentration of 5 ng/mL and cultured for 72 hours for all the experiments.
(§3) RNA isolation was carried out using Trizol as described^12,13. RNA was isolated using Trizol-chloroform method and total RNA was quantified using nano-drop, 1 μg of RNA was used for cDNA synthesis using primescript cDNA synthesis kit (Takara bio) according to manufacturer's instructions. Primers for EMT (Fibronectin1 (FN1), Vimentin, α-SMA and Snail) markers, ECM markers (Timp1, Timp3 and LoxL2), Collagen markers (Collagen 1α1 (Col1) and Collagen 3α1[…] and housekeeping markers (β2M and β-actin) were designed using Primer 3 software and all primer sequences were listed in Table 1. Real time quantitative PCR (qRT-PCR) was carried out using SYBR green master mix and the differences in mRNA expression of all the gene levels were calculated as the fold change using the formula 2-ΔΔct. In all Q-RT-PCR data plots, vehicle control fold change was normalized to 1.

LL29 cells = test: q-RT-PCR gene expression in TGF-β1 stimulated LL29 cells; assay type: cell-based, human
Procedure: as §1, §2, §3

NHLF cells = test: q-RT-PCR gene expression in TGF-β1 stimulated NHLF cells; assay type: cell-based, human
Procedure: as §1, §2, §3

LPS induced ARDS = LPS induced ARDS model; assay type: in vivo, SD rats
Procedure: as §3
Treatment group animals were treated with HDACi (COMPOUND-108) for 7 days at the doses of (1.5 mg/kg and 3 mg/kg), after the treatment period animals were subjected to ARDS instillation by intratracheally. Rats were anesthetized using ketamine and xylazine (80 mg/kg and 20 mg/kg, respectively as per body weight, I.P.). Except 8 animals (Sham control), ARDS was induced in remaining all animals (24 SD rats) by intratracheal instillation of Lipopolysachharide (5 mg/kg) dissolved in normal saline.
(§4) In 4 animals from each group, the thoracic cavity was opened and the tracheas were exposed, cannulated and 3 mL sterile 0.9% saline was slowly infused into the lungs. BALF was centrifuged at 2000 rpm, 4 ° C. for 10 min using cooling centrifuge. The sedimented cell pellets were pooled and re-suspended in 500 μl of sterile saline to quantify inflammatory cell counts; supernatant BLAF was examined for ALP and LDH parameters using auto-analyzer.
A portion of the pulmonary lobe was harvested, rinsed with ice-cold phosphate buffer saline, and fixed with 10% neutral-buffered formalin, embedded in paraffin wax, sectioned (6 μm) and stained with H&E and Masson's trichrome. Three serial slices of 3 μm thickness each 50 μm apart of both lung lobes were stained with Masson's Trichrome. The slides were analyzed with a microscope in a random order using an (10×) objective. The severity of fibrosis and alveolitis in lung tissues (using H&E and Masson's trichrome staining) was semi-quantitatively assessed by a pathologist in a blinded fashion via Ashcroft scoring system^15. The structural alterations of tissue were assessed based on the degree haemorrhage, emphysema, alveolar wall thickening, inflammatory lesions and collagen deposition or fibrosis^16.

[2] = system: BLM-induced pulmonary fibrosis; test: Bleomycin (BLM) induced pulmonary fibrosis model; assay type: in vivo, Wistar rats; settings: for ALP levels / LDH levels: BALF, oral, daily for 14 days; for BLM induced thickened alveolar walls, inflammatory cells infiltration, deposition of collagen fibers (histopathology): H&E (Fibrosis score) and Masson's staining (Ashcroft score), compared BLM alone group; for BLM-induced inflammation, fibrotic marker expression and pathological changes in lung tissues: collective in-vivo conclusion
Procedure: as §3
Adult female Wistar rats (180-200 g, n=50) at the age of 8-10 weeks were used to develop bleomycin induced pulmonary fibrosis model. All animals were kept under constant environmental and nutritional conditions throughout the experimental period. The research protocol complies with the ethical guidelines of experimental research; “Institutional Animal Ethics Committee” (CPSCEA Registration No. 97/GO/RBi/S/1999/CPCSEA and study approval No. IICT/056/2019), CSIR-IICT, Hyderabad.
Except 8 animals (Sham control), pulmonary fibrosis was induced in remaining all animals (32 Wistar rats) by intratracheal instillation of BLM (5 mg/kg) as sulfate salt dissolved in 1 mL of normal saline. Rats were anesthetized using ketamine and xylazine (80 mg/kg and 15 mg/kg respectively as per body weight, I.P.). BLM was administered intratracheally into the lungs of the rats.
Pulmonary fibrosis was induced by a single intratracheal instillation of BLM (5 mg/kg) to the set of animals (n=40) excluding sham control animals (n=8)^14. BLM was dissolved in saline to attain the concentration of 5 mg/ml. Animals were anesthetized with ketamine (80 mg/kg) and xylazine (10 mg/kg). BLM was administered intratracheal (5 mg/kg) to the anesthetized Wistar rats and saline was administered intratracheally in to sham control animals. […] Further, these animals were randomized into four groups (as described in Table-2) apart from sham control (8 rats/group).
As described in the grouping pattern Table 2 and 3, animals were grouped and administered the compounds orally in the form of gum-acacia suspension (0.25%) daily for 14 days. Sham control (without bleomycin) animals were used as a control for bleomycin control (disease control) and administered everyday 0.5 mL of saline for 14 days orally. After the treatment period, BALF fluid was collected from 4 animals in each group and lungs were collected from another 4 animals for ex-vivo experiments and histopathological observations.
as §4
Collagen deposition was determined by measuring the total hydroxyproline content in wet lung tissue, which was measured by a hydroxyproline assay kit (abcam), according to the manufacturer's protocol. In brief, lungs were homogenized in sterile distilled water, alkalized using 10N NaOH and heated at 120° C. for 1 hour. Following alkaline hydrolysis samples were neutralized using 10N concentrated HCL. Then samples were into 96 well plate along with standards and kept for evaporation at 65° C. Then samples were oxidized by adding oxidation mixture followed by addition of developer and incubated at 37° C. for 5 min. […]

Structure (SMILES) | HDAC-8 levels (gene expression) [1] | HDAC-6 mRNA levels ([1]; summary of Example 2) | vimentin levels (LL29 cells) | α-SMA levels (LL29 cells) | vimentin levels (NHLF cells) | α-SMA levels (NHLF cells) | ALP levels [2] | LDH levels [2] | BLM induced thickened alveolar walls, inflammatory cells infiltration, deposition of collagen fibers (histopathology) [2] | BLM-induced inflammation, fibrotic marker expression and pathological changes in lung tissues [2] | other results
Cn1cc(-c2cc(O)cc(F)c2)c2cc(NS(=O)(=O)c3ccc(C(=O)NO)cc3)ccc21 [COMPOUND-107, 4-(N-(3-(3-fluoro-5-hydroxyphenyl)-1-methyl-1H-indol-5-yl)sulfamoyl)-N-hydroxyl benzamide] | did not modulate | could inhibit only HDAC-6 mRNA levels | highly reduced | highly reduced | highly reduced | highly reduced | – | – | – | – | Snail levels (LL29 cells; 10 and 20 μM): highly down-regulated
Cn1cc(-c2cccc(Cl)c2)c2cc(NS(=O)(=O)c3ccc(C(=O)NO)cc3)ccc21 [COMPOUND-108, 4-(N-(3-(3-chlorophenyl)-1-methyl-1H-indol-5-yl)sulfamoyl)-N-hydroxybenzamide] | did not modulate | potentially inhibits | highly reduced | highly reduced | highly reduced | highly reduced | reduced in dose dependently | reduced in dose dependently | reduced | could effectively protect | HDAC-8 mRNA levels ([1]; summary of Example 2): potentially inhibits; HDAC-8 levels (gene expression) (LL29 cells; 2.5 μM): reduced; Snail levels (LL29 cells; 5 and 10 μM): highly down-regulated; HDAC-8 levels (gene expression) (NHLF cells; 2.5 μM): reduced; lung injury and infiltration of inflammatory cells (histopathology) (LPS induced ARDS; 1.5 mg/kg): significant (p<0.01) reduction; LPS induced Neutrophil count in blood (LPS induced ARDS; 3 mg/kg): significantly attenuated; lung injury and infiltration of inflammatory cells (histopathology) (LPS induced ARDS; 3 mg/kg): significant (p<0.01) reduction; plasma IL-6 Levels (LPS induced ARDS; 3 mg/kg, at both the time points): reduced; LPS induced infiltration of Neutrophils (LPS induced ARDS; BALF): significantly attenuated; LPS induced infiltration of WBC (LPS induced ARDS; BALF): significantly attenuated; LPS induced expression of inflammatory markers (IL-6, IL-1β, CCl2, Cox-2, CXCL-6, CCL-7, CXCL-1, CXCL-10) (LPS induced ARDS; lung tissues, mRNA, dose dependent manner): significantly attenuated; LPS induced inflammatory marker's expression (CXCL-11, TLR-3 and INF-γ) (LPS induced ARDS; lung tissues, mRNA, in dose dependent manner): significantly attenuated; pathological consequences (LPS induced), H&E (LPS induced ARDS; pre-treatment at 1.5 and 3 mg/kg doses): remarkably repressed; LPS induced Lung volume (index) (LPS induced ARDS; rat, in vivo): significantly attenuated; LPS induced spleen Indices (LPS induced ARDS; rat, in vivo): significantly attenuated; lung pathological conditions (LPS induced ARDS; statement in embodiment): most effectively ameliorated; fibrotic alterations in BLM challenged rat lung tissues ([2]; statement in embodiment): most effectively ameliorated
CCOc1ccc(-c2cn(C)c3ccc(NS(=O)(=O)c4ccc(C(=O)NO)cc4)cc23)cn1 [COMPOUND-109, 4-(N-(3-(6-ethoxypyridin-3-yl)-1-methyl-1H-indol-5-yl)sulfamoyl)-N-hydroxy benzamide] | did not modulate | could inhibit only HDAC-6 mRNA levels | not modulated | highly reduced | not modulated | highly reduced | reduced in dose dependently | reduced in dose dependently | reduced | could effectively protect | –
